# Reference: patent US12030876B2, “Aryl hydrocarbon receptor (AHR) agonists and uses thereof” (Ikena Oncology, Inc., priority 2019, dated 2024)
# Target: T1, AHR (Homo sapiens, UniProt P35869)
# T1 construct: endogenous in cells; host or cells: HepG2 (human), transfected with a DRE-luciferase reporter only
# T1 sequence (P35869 11-848): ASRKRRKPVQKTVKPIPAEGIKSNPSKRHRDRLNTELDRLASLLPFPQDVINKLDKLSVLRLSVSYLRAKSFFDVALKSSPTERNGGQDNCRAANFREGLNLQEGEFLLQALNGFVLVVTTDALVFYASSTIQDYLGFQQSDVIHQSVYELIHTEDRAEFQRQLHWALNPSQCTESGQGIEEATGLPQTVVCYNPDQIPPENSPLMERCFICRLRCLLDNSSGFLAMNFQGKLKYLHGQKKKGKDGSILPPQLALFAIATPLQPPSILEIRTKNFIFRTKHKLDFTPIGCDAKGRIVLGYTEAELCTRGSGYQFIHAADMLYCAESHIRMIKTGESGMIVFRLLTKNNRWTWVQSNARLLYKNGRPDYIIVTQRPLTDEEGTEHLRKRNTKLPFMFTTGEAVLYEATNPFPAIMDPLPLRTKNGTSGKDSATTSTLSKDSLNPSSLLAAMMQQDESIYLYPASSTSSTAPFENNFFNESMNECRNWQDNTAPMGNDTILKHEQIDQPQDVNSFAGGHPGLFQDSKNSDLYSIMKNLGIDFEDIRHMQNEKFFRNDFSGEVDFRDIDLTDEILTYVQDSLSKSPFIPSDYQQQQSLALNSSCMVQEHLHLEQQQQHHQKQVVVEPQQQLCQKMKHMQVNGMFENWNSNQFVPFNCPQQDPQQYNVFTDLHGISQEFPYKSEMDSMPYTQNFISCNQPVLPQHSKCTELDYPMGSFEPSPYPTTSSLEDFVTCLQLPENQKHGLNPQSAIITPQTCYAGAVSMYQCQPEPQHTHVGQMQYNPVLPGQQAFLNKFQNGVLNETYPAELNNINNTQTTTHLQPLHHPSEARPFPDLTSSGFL
# Assay: DRE-Luciferase Reporter Assay, HepG2 (agonist)
# Assay type: cell-based
# Conditions: HepG2, Table 3; read-out: DRE-Luc HepG2 - Agonist: Average EC50
# In short: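 Cells carrying a stably or transiently transfected DRE-luciferase reporter, plated overnight at 37 C, then given agonist for 6, 16 or 24 h before lysis and luciferase read-out. Signal scaled between no ligand (minimum) and activating ligand alone, e.g. TCDD (maximum); EC50 = concentration giving half-maximal luciferase activity.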
row,Structure (SMILES),EC50
1,Fc1ccc(-c2csc(Nc3cccc(C(F)(F)F)c3)n2)cc1/N=N/c1cc(-c2csc(Nc3cccc(C(F)(F)F)c3)n2)ccc1F [I-171],> 1000 nM
2,O=C(O)c1cccc(/N=N/c2cc(-c3csc(Nc4cccc(C(F)(F)F)c4)n3)ccc2F)c1 [I-173],100 to 1000 nM
3,O=C(O)c1cccc(/N=N/c2cc(-c3csc(Nc4cccc(C(F)(F)F)c4)n3)c(F)cc2F)c1 [I-174],100 to 1000 nM
4,FC(F)(F)c1cccc(Nc2nc(-c3cncc(NNc4cncc(-c5csc(Nc6cccc(C(F)(F)F)c6)n5)c4)c3)cs2)c1 [I-175],100 to 1000 nM
5,O=C(O)c1cc(/N=N/c2cccc(-c3csc(Nc4cccc(C(F)(F)F)c4)n3)c2)cc(C(=O)O)c1 [I-176],> 1000 nM
6,O=C(O)c1cc(/N=N/c2cc(-c3csc(Nc4cccc(C(F)(F)F)c4)n3)ccc2F)ccc1O [I-178],> 1000 nM
7,O=C(O)c1cc(/N=N/c2ccc(F)c(-c3csc(Nc4cccc(C(F)(F)F)c4)n3)c2)ccc1O [I-179],100 to 1000 nM

# Other lines, results leading:
row,EC50,Structure (SMILES)
1,100 to 1000 nM,Fc1ccc(/N=N/c2ccc(F)c(-c3csc(Nc4cccc(C(F)(F)F)c4)n3)c2)cc1-c1csc(Nc2cccc(C(F)(F)F)c2)n1 [I-169]
2,10 to 100 nM,O=C(Nc1cncc(-c2csc(Nc3cccc(C(F)(F)F)c3)n2)c1)Nc1cncc(-c2csc(Nc3cccc(C(F)(F)F)c3)n2)c1 [I-170]
3,10 to 100 nM,Nc1ccccc1-c1csc(Nc2ccccc2C(F)(F)F)n1 [I-172]
4,10 to 100 nM,Nc1ccccc1-c1csc(Nc2cccc(C(F)(F)F)c2)n1 [I-177]

# Target: T2, AHR (Mus musculus, UniProt P30561)
# T2 sequence (P30561 1-848 F348L/P471L): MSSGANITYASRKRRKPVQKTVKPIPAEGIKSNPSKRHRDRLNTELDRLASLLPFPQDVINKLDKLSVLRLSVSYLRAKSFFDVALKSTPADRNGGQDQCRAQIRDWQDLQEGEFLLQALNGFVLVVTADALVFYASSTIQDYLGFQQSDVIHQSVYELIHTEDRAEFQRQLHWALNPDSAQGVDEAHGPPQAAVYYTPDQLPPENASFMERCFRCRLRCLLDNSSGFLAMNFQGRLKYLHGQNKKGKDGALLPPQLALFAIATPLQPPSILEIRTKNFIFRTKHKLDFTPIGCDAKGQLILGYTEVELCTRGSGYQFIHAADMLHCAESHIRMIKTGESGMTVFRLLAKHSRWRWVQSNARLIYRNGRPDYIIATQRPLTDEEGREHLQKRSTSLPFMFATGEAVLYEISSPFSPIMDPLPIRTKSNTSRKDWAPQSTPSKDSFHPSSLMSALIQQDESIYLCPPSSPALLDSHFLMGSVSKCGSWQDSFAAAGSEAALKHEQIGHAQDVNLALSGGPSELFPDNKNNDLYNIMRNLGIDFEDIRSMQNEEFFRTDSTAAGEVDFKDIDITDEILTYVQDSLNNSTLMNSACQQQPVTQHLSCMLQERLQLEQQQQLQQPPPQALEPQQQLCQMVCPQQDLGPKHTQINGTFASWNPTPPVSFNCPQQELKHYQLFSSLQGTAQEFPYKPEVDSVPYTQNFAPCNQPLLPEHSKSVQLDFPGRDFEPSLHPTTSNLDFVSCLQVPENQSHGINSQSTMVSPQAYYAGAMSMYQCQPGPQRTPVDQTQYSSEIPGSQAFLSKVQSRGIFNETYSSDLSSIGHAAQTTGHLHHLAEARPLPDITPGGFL
# Assay: DRE-Luciferase Reporter Assay, Hepa1.6 (agonist)
# Assay type: cell-based, murine
# Conditions: Hepa1.6, Table 3; read-out: DRE-Luc Hepa1.6 - Agonist: Average EC50
# Description: DRE-Luciferase Reporter Assay
# AHR binds to Dioxin Responsive Elements (DRE) upstream of genes that it activates. One measure of AHR activity is activation of a reporter gene, such as luciferase, downstream of one or multiple DRE elements. Luciferase activity reflects activation and inhibition of AHR in the cells expressing this reporter.
# Murine Hepa1-6 or Hepa-1c1c7 or other murine cell line with a DRE-luciferase reporter either stably or transiently transfected are plated in media in plates (96-well, 384-well or other plates) and incubated overnight at 37 C in a CO2 incubator. Likewise, human HepG2 or other human cell line with a DRE-luciferase reporter either stably or transiently transfected are plated in media in plates (96-well, 384-well or other plates) and incubated overnight at 37 C in a CO2 incubator.
# The next day, an AHR agonist compound is added. Cells are incubated for 6, 16 or 24 hours or another time point and then lysed for determination of luciferase activity as a read-out of the AHR activation. Luciferase can be measured with a commercial kit such as the Promega Luciferase kit or any kit or reagents that provide the luciferin substrate for measuring luciferase activity. The level of luciferase with only activating ligand (e.g. such as TCDD, kynurenine, ITE (2-(1H-indole-3-ylcarbonyl)-4-thiazolecarboxylic methyl ester), VAF347, BNF (beta-naphthoflavone), ICZ (6-formylindolo(3,2-b) carbazole or other AHR ligands) added is the maximum signal while the luciferase with no ligand is the minimum signal. EC50s can be determined as the concentration which activates half of the maximum luciferase activity.
row,Structure (SMILES),EC50
1,Fc1ccc(-c2csc(Nc3cccc(C(F)(F)F)c3)n2)cc1/N=N/c1cc(-c2csc(Nc3cccc(C(F)(F)F)c3)n2)ccc1F [I-171],> 1000 nM
2,O=C(O)c1cccc(/N=N/c2cc(-c3csc(Nc4cccc(C(F)(F)F)c4)n3)ccc2F)c1 [I-173],100 to 1000 nM
3,O=C(O)c1cccc(/N=N/c2cc(-c3csc(Nc4cccc(C(F)(F)F)c4)n3)c(F)cc2F)c1 [I-174],100 to 1000 nM
4,FC(F)(F)c1cccc(Nc2nc(-c3cncc(NNc4cncc(-c5csc(Nc6cccc(C(F)(F)F)c6)n5)c4)c3)cs2)c1 [I-175],100 to 1000 nM
5,O=C(O)c1cc(/N=N/c2cccc(-c3csc(Nc4cccc(C(F)(F)F)c4)n3)c2)cc(C(=O)O)c1 [I-176],> 1000 nM
6,O=C(O)c1cc(/N=N/c2cc(-c3csc(Nc4cccc(C(F)(F)F)c4)n3)ccc2F)ccc1O [I-178],> 1000 nM
7,O=C(O)c1cc(/N=N/c2ccc(F)c(-c3csc(Nc4cccc(C(F)(F)F)c4)n3)c2)ccc1O [I-179],> 1000 nM

# Results, then the compound that gave them:
row,EC50,Structure (SMILES)
1,100 to 1000 nM,Fc1ccc(/N=N/c2ccc(F)c(-c3csc(Nc4cccc(C(F)(F)F)c4)n3)c2)cc1-c1csc(Nc2cccc(C(F)(F)F)c2)n1 [I-169]
2,10 to 100 nM,O=C(Nc1cncc(-c2csc(Nc3cccc(C(F)(F)F)c3)n2)c1)Nc1cncc(-c2csc(Nc3cccc(C(F)(F)F)c3)n2)c1 [I-170]
3,> 1000 nM,Nc1ccccc1-c1csc(Nc2ccccc2C(F)(F)F)n1 [I-172]
4,< 10 nM,Nc1ccccc1-c1csc(Nc2cccc(C(F)(F)F)c2)n1 [I-177]
